# Experiments:
# Src kinases = settings: partly from the literature; cited from earlier work
# [1] = system: 32D cells which express wt Bcr-Abl; assay: Proliferation and survival of 32D cells expressing wt Bcr-Abl in the absence of interleukin-3; type: cell-based, murine; settings: 32D cells expressing Bcr-Abl wt; no interleukin-3; PP1 25 μM or STI571 1 μM
# Experimental: (§1) Bcr-Abl is a constitutionally active tyrosine kinase which induces different forms of leukaemia in the animal model and humans.
# (§2) The example is carried out by transfixing 32D cells with a plasmid by electroporation, i.e. with the aid of a current pulse. The plasmid codes for either wt Bcr-Abl or e.g. for the mutant T315M. These plasmids additionally carry a resistance marker; in this case a puromycin resistance gene. Transfixed cells are therefore selected by means of puromycin.
# (§3) The cells are then characterised biologically. For this purpose interleukin-3 is removed from them as an essential survival and growth factor.
# (§4) Both substances prevent both proliferation and survival of cells which express Bcr-Abl wt, and do so to the same extent (FIGS. 17 and 18).
# [2] = system: 32D cells which express the mutant Bcr-Abl T315M; assay: Proliferation and survival of 32D cells expressing mutant Bcr-Abl T315M in the absence of interleukin-3; type: cell-based, murine; settings: 32D cells expressing Bcr-Abl T315M; no interleukin-3; PP1 25 μM or STI571 1 μM
# Experimental: as §1, §2, §3, §4
structure (smiles),measurement,setting,value
Cc1ccc(-c2nn(C(C)(C)C)c3ncnc(N)c23)cc1 [PP1],inhibition of Src kinases,Src kinases,inhibited
same,proliferation of cells,[1],prevent
same,proliferation (cell growth),[2],complete cessation of cell growth

# Reference: US20030162222A1, “Method for selecting enzyme inhibitors” (priority 2000, published 2003)
